The IC50 is the concentration that inhibits the measured activity by half.

Among the data in ChEMBL document CHEMBL1136650, “Glycine alpha-ketoamides as HCV NS3 protease inhibitors” (Bioorg Med Chem Lett, 2003) are IC50 values, retold here.

Numbered stars: 1 amine (or outer) side, 2 acyl side, 3 side chain; on linkers, the order of the positions; unused ones are H or OH. Square brackets hold non-standard residues; d marks the D form. Peptide text beside a SMILES is read from it. * marks the point of attachment. Abu(ψCOCO) = CC[C@H](N[*:1])C(=O)C(=O)[*:2]; X1 = O=C(C(=O)[*:2])[C@H](CC(F)F)N[*:1]; Pyrazinecarbonyl = O=C(c1cnccn1)*; X2 = CC(C)(N[*:1])C(=O)C(=O)[*:2]; X3 = O=C(C(=O)[*:2])C1(N[*:1])CC1; Cha = N[C@@H](CC1CCCCC1)C(=O)O; Aib = CC(C)(N)C(=O)O; NHAllyl = C=CCN*; Sar = CNCC(=O)O

The assay deals with Genome polyprotein (Hepatitis C virus genotype 1a (isolate 1) (HCV), UniProt P26664). The experiment in a line: Inhibitory concentration against HCV NS3 protease was determined.
Sequence of Genome polyprotein (P26664 1027-1657 limits assumed): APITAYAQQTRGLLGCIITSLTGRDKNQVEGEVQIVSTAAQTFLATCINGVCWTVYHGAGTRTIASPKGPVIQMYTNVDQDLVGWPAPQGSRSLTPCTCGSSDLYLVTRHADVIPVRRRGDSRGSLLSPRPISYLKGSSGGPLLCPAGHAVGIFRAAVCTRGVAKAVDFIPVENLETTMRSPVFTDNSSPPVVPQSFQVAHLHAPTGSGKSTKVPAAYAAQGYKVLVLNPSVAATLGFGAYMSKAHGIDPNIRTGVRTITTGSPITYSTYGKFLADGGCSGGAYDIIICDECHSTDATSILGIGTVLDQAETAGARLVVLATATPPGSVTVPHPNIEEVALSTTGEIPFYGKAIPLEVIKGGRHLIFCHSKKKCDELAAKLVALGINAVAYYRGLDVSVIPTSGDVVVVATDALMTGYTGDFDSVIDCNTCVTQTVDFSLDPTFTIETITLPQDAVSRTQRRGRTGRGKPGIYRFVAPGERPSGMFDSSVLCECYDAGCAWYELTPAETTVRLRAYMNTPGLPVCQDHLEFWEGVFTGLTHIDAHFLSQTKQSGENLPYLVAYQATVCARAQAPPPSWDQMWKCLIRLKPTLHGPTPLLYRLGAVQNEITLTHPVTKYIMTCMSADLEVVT

Compound `CC[C@H](NC(=O)[C@H](CC1CCCCC1)NC(=O)[C@@H](NC(=O)[C@H](CC(C)C)NC(=O)c1cnccn1)[C@@H](C)CC)C(=O)C(=O)N1CCOCC1` had an IC50 above 60 µM.
`CCNC(=O)C(=O)[C@H](CC)NC(=O)[C@H](CC1CCCCC1)NC(=O)[C@@H](NC(=O)[C@H](CC(C)C)NC(=O)c1cnccn1)[C@@H](C)CC` gave an IC50 of 1.8 µM.
The compound `CC[C@H](NC(=O)[C@H](CC1CCCCC1)NC(=O)[C@@H](NC(=O)[C@H](CC(C)C)NC(=O)c1cnccn1)[C@@H](C)CC)C(=O)C(=O)NCc1ccccc1` had an IC50 of 11 µM.
In turn, `CC[C@H](NC(=O)[C@H](CC1CCCCC1)NC(=O)[C@@H](NC(=O)[C@H](CC(C)C)NC(=O)c1cnccn1)[C@@H](C)CC)C(=O)C(=O)NC1CC1` had an IC50 of 2.2 µM. Against the preceding compound, the IC50 is about 5-fold lower.
Regarding `CC[C@H](NC(=O)[C@H](CC1CCCCC1)NC(=O)[C@@H](NC(=O)[C@H](CC(C)C)NC(=O)c1cnccn1)[C@@H](C)CC)C(=O)C(=O)N[C@H](C)C(=O)O`, the IC50 is above 60 µM.
Next, `CC[C@H](NC(=O)[C@H](CC1CCCCC1)NC(=O)[C@@H](NC(=O)[C@H](CC(C)C)NC(=O)c1cnccn1)[C@@H](C)CC)C(=O)C(=O)NCCC(=O)O`: 12 µM; `C=CCNC(=O)C(=O)[C@H](CC)NC(=O)[C@H](CC1CCCCC1)NC(=O)[C@@H](NC(=O)[C@H](CC(C)C)NC(=O)c1cnccn1)[C@@H](C)CC`: 2.7 µM.
For the compound `CC[C@H](NC(=O)[C@H](CC1CCCCC1)NC(=O)[C@@H](NC(=O)[C@H](CC(C)C)NC(=O)c1cnccn1)[C@@H](C)CC)C(=O)C(=O)N1CCCC1`, the IC50 came to 42 µM.
In turn, `CC[C@H](NC(=O)[C@H](CC1CCCCC1)NC(=O)[C@@H](NC(=O)[C@H](CC(C)C)NC(=O)c1cnccn1)[C@@H](C)CC)C(=O)C(=O)N[C@@H](C)C(=O)O` displayed an IC50 of 1.3 µM.
Take `C#CCNC(=O)C(=O)[C@H](CC)NC(=O)[C@H](CC1CCCCC1)NC(=O)[C@@H](NC(=O)[C@H](CC(C)C)NC(=O)c1cnccn1)[C@@H](C)CC`: the midpoint of inhibition, the IC50, lay at 1.6 µM.
The compound `C=CCNC(=O)C(=O)[C@H](CC)NC(=O)[C@@H]1CCCN1C(=O)[C@@H](NC(=O)[C@@H](NC(=O)[C@H](CCC(=O)O)NC(=O)[C@@H](N)CC(=O)O)C(C)C)C(C)C` (H-DEVVP[Abu(ψCOCO)]-NHAllyl) had an IC50 of 0.42 µM.
As for `CC[C@H](NC(=O)[C@H](CC1CCCCC1)NC(=O)[C@@H](NC(=O)[C@H](CC(C)C)NC(=O)c1cnccn1)[C@@H](C)CC)C(=O)C(=O)N[C@@H](CC(=O)O)C(=O)O` (Pyrazinecarbonyl-LI[Cha][Abu(ψCOCO)]D-OH), the figure is 5.3 µM.
`CC[C@H](NC(=O)[C@H](CC1CCCCC1)NC(=O)[C@@H](NC(=O)[C@H](CC(C)C)NC(=O)c1cnccn1)[C@@H](C)CC)C(=O)C(=O)NCC(N)=O` (Pyrazinecarbonyl-LI[Cha][Abu(ψCOCO)]G-NH2) gave an IC50 of 4.3 µM. The IC50 values of the last two compounds are within 1.5-fold of each other.
For `CC[C@H](NC(=O)[C@H](CC1CCCCC1)NC(=O)[C@@H](NC(=O)[C@H](CC(C)C)NC(=O)c1cnccn1)[C@@H](C)CC)C(=O)C(=O)NCC(=O)O` (Pyrazinecarbonyl-LI[Cha][Abu(ψCOCO)]G-OH), the IC50 was determined as 0.23 µM.
Compound `CC[C@H](NC(=O)[C@H](CC1CCCCC1)NC(=O)[C@@H](NC(=O)[C@H](CC(C)C)NC(=O)c1cnccn1)[C@@H](C)CC)C(=O)C(=O)NCC(=O)OC` (Pyrazinecarbonyl-LI[Cha][Abu(ψCOCO)]G-OMe) had an IC50 of 5.8 µM.
Next, `CC[C@H](NC(=O)[C@H](CC1CCCCC1)NC(=O)[C@@H](NC(=O)[C@H](CC(C)C)NC(=O)c1cnccn1)[C@@H](C)CC)C(=O)C(=O)N[C@@H](CCCCN)C(=O)O` (Pyrazinecarbonyl-LI[Cha][Abu(ψCOCO)]K-OH): 7.7 µM; `CC[C@H](NC(=O)[C@H](CC1CCCCC1)NC(=O)[C@@H](NC(=O)[C@H](CC(C)C)NC(=O)c1cnccn1)[C@@H](C)CC)C(=O)C(=O)N[C@H](C(=O)O)C(C)C` (Pyrazinecarbonyl-LI[Cha][Abu(ψCOCO)]V-OH): 3.6 µM; `CC[C@H](NC(=O)[C@H](CC1CCCCC1)NC(=O)[C@@H](NC(=O)[C@H](CC(C)C)NC(=O)c1cnccn1)[C@@H](C)CC)C(=O)C(=O)NC(C)(C)C(=O)O` (Pyrazinecarbonyl-LI[Cha][Abu(ψCOCO)][Aib]-OH): above 60 µM.
As for `CC[C@H](NC(=O)[C@H](CC1CCCCC1)NC(=O)[C@@H](NC(=O)[C@H](CC(C)C)NC(=O)c1cnccn1)[C@@H](C)CC)C(=O)C(=O)N(C)CC(=O)O` (Pyrazinecarbonyl-LI[Cha][Abu(ψCOCO)][Sar]-OH), the IC50 is above 60 µM.
As to `CC[C@H](C)[C@H](NC(=O)[C@H](CC(C)C)NC(=O)c1cnccn1)C(=O)N[C@@H](CC1CCCCC1)C(=O)N[C@@H](CC(F)F)C(=O)C(=O)NCC(=O)O` (Pyrazinecarbonyl-LI[Cha][X1]G-OH), the IC50 stood at 0.06 µM. This counts as double-digit nanomolar.
As for `CC[C@H](C)[C@H](NC(=O)[C@H](CC(C)C)NC(=O)c1cnccn1)C(=O)N[C@@H](CC1CCCCC1)C(=O)NC(C)(C)C(=O)C(=O)NCC(=O)O` (Pyrazinecarbonyl-LI[Cha][X2]G-OH), the figure is above 60 µM.
Next, `CC[C@H](C)[C@H](NC(=O)[C@H](CC(C)C)NC(=O)c1cnccn1)C(=O)N[C@@H](CC1CCCCC1)C(=O)NC1(C(=O)C(=O)NCC(=O)O)CC1` (Pyrazinecarbonyl-LI[Cha][X3]G-OH): above 60 µM.
